Source: ChEMBL document CHEMBL1136220, “Synthesis and cytotoxic activity of A-ring modified betulinic acid derivatives” (2003)
Values after ≈ are worked out from the molar mass of the structure shown.

Tests used:
Assay type in all cases: functional
A549 = assay: Cytotoxic activity towards A-549 cells; conditions: Homo sapiens, read-out: ED50 (the source's name)
B16-F10 = assay: Cytotoxic activity towards B16-F10 cells; conditions: Mus musculus, read-out: ED50 (the source's name)
SK-MEL-2 = assay: Cytotoxic activity towards M2 cells (SK-MEL-2); conditions: Homo sapiens, read-out: ED50 (the source's name)

Row | Structure (SMILES) | EC50 (A549) | EC50 (B16-F10) | EC50 (SK-MEL-2)
1 | CC(C)[C@@H]1CC[C@]2(C(=O)O)CC[C@]3(C)C(CC[C@@H]4[C@@]5(C)CC(C=O)=C(O)C(C)(C)C5CC[C@]43C)C12 (stereo not given in full) | 2.2 µg/mL (≈ 4.54 µM) | 1.66 µg/mL (≈ 3.42 µM) | 3.76 µg/mL (≈ 7.76 µM)
2 | CC(C)[C@@H]1CC[C@]2(C(=O)O)CC[C@]3(C)C(CC[C@@H]4[C@@]5(C)Cc6cnoc6C(C)(C)C5CC[C@]43C)C12 (stereo not given in full) | 2.7 µg/mL (≈ 5.6 µM) | 1.57 µg/mL (≈ 3.26 µM) | 1.15 µg/mL (≈ 2.39 µM)
3 | CC(C)[C@@H]1CC[C@]2(C(=O)O)CC[C@]3(C)C(CC[C@@H]4[C@@]5(C)C=C(C#N)C(=O)C(C)(C)C5CC[C@]43C)C12 (stereo not given in full) | 1.32 µg/mL (≈ 2.75 µM) | 1.43 µg/mL (≈ 2.98 µM) | 0.81 µg/mL (≈ 1.69 µM)
4 | C=C(C)[C@@H]1CC[C@]2(C(=O)OC)CC[C@]3(C)C(CC[C@@H]4[C@@]5(C)CC(C=O)=C(O)C(C)(C)C5CC[C@]43C)C12 (stereo not given in full) | > 30 µg/mL | > 30 µg/mL | > 30 µg/mL
5 | C=C(C)[C@@H]1CC[C@]2(C(=O)OC)CC[C@]3(C)C(CC[C@@H]4[C@@]5(C)C=C(C#N)C(=O)C(C)(C)C5CC[C@]43C)C12 (stereo not given in full) | 4.55 µg/mL (≈ 9.25 µM) | 3.57 µg/mL (≈ 7.26 µM) | 2.12 µg/mL (≈ 4.31 µM)
6 | COC(=O)[C@]12CC[C@@H](C(C)C)C1C1CC[C@@H]3[C@@]4(C)Cc5cnoc5C(C)(C)C4CC[C@@]3(C)[C@]1(C)CC2 (stereo not given in full) | > 30 µg/mL | > 30 µg/mL | > 30 µg/mL
7 | COC(=O)[C@]12CC[C@@H](C(C)C)C1C1CC[C@@H]3[C@@]4(C)C=C(OC)C(=O)C(C)(C)C4CC[C@@]3(C)[C@]1(C)CC2 (stereo not given in full) | > 30 µg/mL | > 30 µg/mL | > 30 µg/mL
8 | C=C(C)[C@@H]1CC[C@]2(C(=O)O)CC[C@]3(C)C(CC[C@@H]4[C@@]5(C)Cc6cnoc6C(C)(C)C5CC[C@]43C)C12 (stereo not given in full) | 1.54 µg/mL (≈ 3.21 µM) | 3.11 µg/mL (≈ 6.48 µM) | 16.6 µg/mL (≈ 34.6 µM)
9 | COC(=O)[C@]12CC[C@@H](C(C)C)C1C1CC[C@@H]3[C@@]4(C)C=C(C=O)C(=O)C(C)(C)C4CC[C@@]3(C)[C@]1(C)CC2 (stereo not given in full) | 0.31 µg/mL (≈ 0.624 µM) | 0.29 µg/mL (≈ 0.584 µM) | 0.73 µg/mL (≈ 1.47 µM)
10 | COC(=O)[C@]12CC[C@@H](C(C)C)C1C1CC[C@@H]3[C@@]4(C)C=CC(=O)C(C)(C)C4CC[C@@]3(C)[C@]1(C)CC2 (stereo not given in full) | > 30 µg/mL | > 30 µg/mL | > 30 µg/mL
11 | COC(=O)[C@]12CC[C@@H](C(C)C)C1C1CCC3[C@]4(C)C(CC[C@@]3(C)[C@]1(C)CC2)C(C)(C)C(=O)[C@@H]1O[C@@H]14 (stereo not given in full) | > 30 µg/mL | > 30 µg/mL | > 30 µg/mL
12 | C=C(C)[C@@H]1CC[C@]2(C(=O)O)CC[C@]3(C)[C@H](CC[C@@H]4[C@@]5(C)CC[C@H](O)C(C)(C)[C@@H]5CC[C@]43C)[C@@H]12 [BETULINIC ACID] | 7.7 µg/mL (≈ 16.9 µM) | 4.98 µg/mL (≈ 10.9 µM) | 7.62 µg/mL (≈ 16.7 µM)
13 | CC(C)[C@@H]1CC[C@]2(C(=O)O)CC[C@]3(C)C(CC[C@@H]4[C@@]5(C)C=C(Cl)C(=O)C(C)(C)C5CC[C@]43C)C12 (stereo not given in full) | 1.01 µg/mL (≈ 2.06 µM) | 1.55 µg/mL (≈ 3.17 µM) | 0.13 µg/mL (≈ 0.266 µM)
14 | C=C(C)[C@@H]1CC[C@]2(C(=O)O)CC[C@]3(C)C(CC[C@@H]4[C@@]5(C)CC(C=O)=C(O)C(C)(C)C5CC[C@]43C)C12 (stereo not given in full) | 2.76 µg/mL (≈ 5.72 µM) | > 30 µg/mL | > 30 µg/mL
15 | CC(C)[C@@H]1CC[C@]2(C(=O)O)CC[C@]3(C)C(CC[C@@H]4[C@@]5(C)C=C(C=O)C(=O)C(C)(C)C5CC[C@]43C)C12 (stereo not given in full) | 0.17 µg/mL (≈ 0.352 µM) | 0.3 µg/mL (≈ 0.621 µM) | 0.26 µg/mL (≈ 0.539 µM)
16 | COC(=O)[C@]12CC[C@@H](C(C)C)C1C1CC[C@@H]3[C@@]4(C)C=C(C#N)C(=O)C(C)(C)C4CC[C@@]3(C)[C@]1(C)CC2 (stereo not given in full) | 13 µg/mL (≈ 26.3 µM) | 0.8 µg/mL (≈ 1.62 µM) | 1.25 µg/mL (≈ 2.53 µM)
17 | CC(C)[C@@H]1CC[C@]2(C(=O)O)CC[C@]3(C)C(CC[C@@H]4[C@@]5(C)C=CC(=O)C(C)(C)C5CC[C@]43C)C12 (stereo not given in full) | 2.89 µg/mL (≈ 6.36 µM) | 1.75 µg/mL (≈ 3.85 µM) | 2.29 µg/mL (≈ 5.04 µM)
18 | COC(=O)[C@]12CC[C@@H](C(C)C)C1C1CC[C@@H]3[C@@]4(C)CC(C=O)=C(O)C(C)(C)C4CC[C@@]3(C)[C@]1(C)CC2 (stereo not given in full) | > 30 µg/mL | > 30 µg/mL | > 30 µg/mL
19 | C=C(C)[C@@H]1CC[C@]2(C(=O)OC)CC[C@]3(C)C(CC[C@@H]4[C@@]5(C)Cc6cnoc6C(C)(C)C5CC[C@]43C)C12 (stereo not given in full) | > 30 µg/mL | > 30 µg/mL | > 30 µg/mL
20 | COC(=O)[C@]12CC[C@@H](C(C)C)C1C1CC[C@@H]3[C@@]4(C)C=C(Cl)C(=O)C(C)(C)C4CC[C@@]3(C)[C@]1(C)CC2 (stereo not given in full) | > 30 µg/mL | > 30 µg/mL | > 30 µg/mL
